Measured values published in US20250312468A1, “ANTI-PROTAC ANTIBODIES AND COMPLEXES” (Merck Patent GmbH, priority 2021, published 2025).

Tests used:
MIC2 = experiment: SPR binding of PROTACs to immobilized antibody MIC2; conditions: MIC2, 1:1 kinetic binding model
Experimental: The binding affinities of hit antibodies MIC1 and MIC2 to a diverse set of VH032-based PROTACs (FIGS. 8A-8B) was determined by surface plasmon resonance (SPR) in a Biacore T200 instrument. The running buffer consist of PBS, 0.05% Tween-20, 2% DMSO and temperature and flow rate were set to 30° C. and 30 μL/min, respectively. The assay setup is depicted exemplarily in FIG. 7A. CM5 sensor chips were coated with antibody (=ligand; 2500 RU) using standard EDC/NHS chemistry. PROTACs (=analytes) were serially diluted (1 μM-1.9 nM) in running buffer, injected to the instrument in consecutive runs and were captured by the antibody resulting in an increase of the corresponding SPR response. After the association step (300 s), running buffer was injected for 600 s and the PROTAC dissociated from the antibody leading to signal decrease. After each run, residual bound PROTAC was removed from the immobilized antibody by injection of 10 mM glycine/HCl, pH 1.5 for 2×30 s regenerating the antibody for the next association and dissociation cycle. To compensate for matrix effects, the measured SPR response signal was subtracted by the analyte response to an inactivated (EDC/NHS, ethanol amine) reference surface omitting the ligand. Furthermore, a DMSO solvent correction was performed and analyte response was subtracted by the running buffer signal. The corrected response was fitted by a 1:1 kinetic binding model yielding the on- (kon) and off-rate (koff) of the PROTAC, as well as its dissociation constant (KD).

CD33xMIC10 = experiment: SPR affinity of VHH clone (antibody fusion) to PROTACs; conditions: CD33xMIC10 immobilized, 25° C., read-out: KD [M] for antibody binding to PROTAC
Experimental: (§1) The kinetic and affinity parameters of protein-PROTAC interactions were evaluated by SPR. The anti-PROTAC VHH clones MIC5-MIC14 were immobilized as CD33 or CLL1 antibody fusion (the manufacturing of fusion proteins and the used linker is described in chapter 7.9) onto a CM5 (Series S) sensor chip via the standard amine coupling procedure, at 25° C. Prior to immobilization, the carboxymethylated surface of the chip was activated with 400 mM 1-ethyl-3-(3-dimethylaminopropyl)-carbodiimide and 100 mM N-hydroxysuccinimide for 7 min. Hit anti-PROTAC VHH as CD33 and CLL1 antibody fusions were diluted to 10 μg/ml in 10 mM Acetate at pH 4.5 and immobilized on the activated surface chip for 7 min, in order to reach 3,000 to 6,000 response units (RU). The remaining activated carboxymethylated groups were blocked with a 10 min injection of 1 M ethanolamine pH 8. HBS-N, which consists of 10 mM HEPES pH 7.4 and 150 mM NaCl, was used as the background buffer during immobilization. PROTACs were prediluted in DMSO, diluted 1:50 in running buffer (12 mM phosphate pH 7.4, 137 mM NaCl, 2.7 mM KCl, 0.05% Tween20, 2% DMSO) and injected at ten different concentrations using two-fold dilution series, from 1 μM to 0.002 μM. A DMSO solvent correction (1%-3%) was performed to account for variations in bulk signal and to achieve high-quality data. Interaction analysis cycles consisted of a 300 sec sample injection (30 μL/min; association phase) followed by 900 sec of buffer flow (dissociation phase).
(§2) All sensorgrams were processed by first subtracting the binding response recorded from the control surface (reference flow-channel), followed by subtracting of the buffer blank injection from the active flow-channel (target protein immobilized). All datasets were fit to a simple 1:1 Langmuir interaction model to determine the kinetic rate constants. Experiments were performed on a Biacore 8k+ (Cytiva, Uppsala, Sweden) at 25° C. and the interactions were evaluated using the provided Biacore Insight Evaluation software.

CD33xMIC11 = experiment: as above; conditions: CD33xMIC11 immobilized, 25° C., read-out: KD [M] for antibody binding to PROTAC
Experimental: as §1, §2

CD33xMIC13 = experiment: as above; conditions: CD33xMIC13 immobilized, 25° C., read-out: KD [M] for antibody binding to PROTAC
Experimental: as §1, §2

CD33xMIC14 = experiment: as above; conditions: CD33xMIC14 immobilized, 25° C., read-out: KD [M] for antibody binding to PROTAC
Experimental: as §1, §2

CD33xMIC5 = experiment: as above; conditions: CD33xMIC5 immobilized, 25° C., read-out: KD [M] for antibody binding to PROTAC
Experimental: as §1, §2

CD33xMIC6 = experiment: as above; conditions: CD33xMIC6 immobilized, 25° C., read-out: KD [M] for antibody binding to PROTAC
Experimental: as §1, §2

[1] = PK study of CD33-based VHH fusions and PAX in C57BL/6N mice; format: in vivo, mouse; conditions: analyte tAntibody, 30 mg/kg i.v., mean
Experimental: Additionally, the PAX CD33xMIC5+GNE987 and CD33xMIC7+GNE987 were generated with a theoretical loading of 100% and investigated in PK studies conducted in C57BL/6N inbred mice (N=2 males and females for each group) provided by Charles River Laboratories Italia, Calco, Italy. The 7-8-week-old mice received 30 mg/kg (corresponding to 0.38 mg/kg PROTAC) of CD33xMIC5+GNE987 and CD33xMIC7+GNE987, CD33 antibody alone, CD33xMIC5 or CD33xMIC7 as single dose, that was intravenously injected into the tail vein. Samples have been serially collected from all animals using a microsampling technique ([…] for each blood withdrawal). After administration, two blood samples were taken on the first day and 7 during the three weeks later. Each sample was collected in pre-chilled (0-4° C.) Minivette POCT EDTA tube, transferred in Microvette CB300 EDTA and centrifuged at 2500×g for 10 min at 4° C. The obtained plasma was transferred into a new vial and immediately stored at −80° C. until further analyses. The PK study, animal handling and experimentation, was conducted in accordance with the Italian D.Lvo. 2014/26 and Directive 2010/63/EU. The study was performed at the Instituto di Ricerche Biomediche Antoine Marxer, Colleretto Giacosa, Italy. The institute is fully authorized by the Italian Ministry of Health.
The total antibody concentration was determined by ligand binding assay (LBA) based on the Meso Scale Diagnostics technology (MSD, LLC., Rockville, MD). All incubation steps were performed at 22° C. with gentle agitation. All washing steps (200 μL/well) were performed with PBS-T, containing PBS pH 7.4 and 0.01% Tween 20, using the plate washer ELx405 (BioTek instruments Inc., Winooski, VT). First, 2.5 μg/mL biotin-SP-conjugated AffiniPure goat anti-human IgG, Fcγ fragment specific (Jackson ImmunoResearch Europe Ltd., JIR, Cambridgeshire, United Kingdom, #109-065-098) was coated on MSD GOLD 96-well Streptavidin QUICKPLEX Plates (MSD, #L55SA) for 2 h. Afterwards, plates were washed three times. Plasma samples, standards and quality controls were serially diluted in dilution buffer, consisting of PBS pH 7.4, 0.05% Tween 20 and 3.0% (w/v) BSA, and incubated on the plates for 1 h. The plates were washed again and incubated for 1 h with 0.6 μg/ml mouse anti-human IgG, F(ab′)2 fragment specific (JIR, #209-005-097), previously labeled with MSD GOLG SULFO-TAG (MSD, #R31AA-1) according to the manufacturing procedure. After a final washing step, 150 μL of 2×MSD Read Buffer T with surfactant (MSD, #R92TC) was added to each well and plates were read on a MESO Quickplex SQ120 plate reader (MSD). The Software Watson LIMS (Version 7.5, ThermoFisher Scientific Inc.) was used to fit the standard curve with a 5PL (Marquart) equations, weighting factor 1/Y2, and to calculate the total mAb concentration of the plasma samples. The lower limit of quantification (LLOQ) was 50 ng/ml. The concentration of MSC2734242 was determined by liquid chromatography tandem mass spectrometry (LC-MS/MS) using a SCIEX 5500 triple quadrupole with Turbo Ion Spray source (ITS) in positive modality (SCIEX, Redwood City, CA, USA). Chromatographic separation was achieved using a Waters ACQUITY UPLC BEH (C18, 2.1×50 mm, 1.7 μm) column, mounted in a Waters ACQUITY I-class UPLC system (Milford, MA, USA), configured with a 100 μL extension loop. […]

CD33xMIC12 = experiment: SPR affinity of VHH clone (antibody fusion) to PROTACs; conditions: CD33xMIC12 immobilized, 25° C., read-out: KD [M] for antibody binding to PROTAC
Experimental: as §1, §2

CD33xMIC7 = experiment: as above; conditions: CD33xMIC7 immobilized, 25° C., read-out: KD [M] for antibody binding to PROTAC
Experimental: as §1, §2

CD33xMIC8 = experiment: as above; conditions: CD33xMIC8 immobilized, 25° C., read-out: KD [M] for antibody binding to PROTAC
Experimental: as §1, §2

CD33xMIC9 = experiment: as above; conditions: CD33xMIC9 immobilized, 25° C., read-out: KD [M] for antibody binding to PROTAC
Experimental: as §1, §2

Q: With `Cc1ncsc1-c1ccc(CNC(=O)[C@@H]2C[C@@H](O)CN2C(=O)[C@@H](NC(=O)C2(F)CC2)C(C)(C)C)c(OCCOc2ccc(CN3CCN(c4cc(-c5ccccc5O)nnc4N)CC3)cc2)c1` [ACBI1] as the compound, how does the Kd (MIC2) read?
A: > 1000 nM

Q: And the Kd (CD33xMIC10)?
A: 8.5e-06 M

Q: And the Kd (CD33xMIC11)?
A: 0.00011 M

Q: And the Kd (CD33xMIC13)?
A: 9.3e-05 M

Q: And the Kd (CD33xMIC14)?
A: 9.3e-07 M

Q: And the Kd (CD33xMIC5)?
A: 2.5e-06 M

Q: And the Kd (CD33xMIC6)?
A: 6.5e-06 M

Q: Which AUC0-inf [1] does the source give for “CD33 Ab: parental CD33-binding antibody (gemtuzumab CDRs, IgG4) without VHH” here?
A: 219000 µg·h/mL

Q: And the Cl [1]?
A: 3.36 mL/day/kg

Q: What about the Cmax [1] of the same compound?
A: 810 µg/mL

Q: What about the Vss [1] of the same compound?
A: 0.0742 L/kg

Q: What about the t½ [1] of the same compound?
A: 237.0 h

Q: For `CCCOc1cccc(Oc2cc3c(cc2NS(=O)(=O)c2cccc(C(=O)NCCOCCOCCOCC(=O)N[C@H](C(=O)N4C[C@H](O)C[C@H]4C(=O)NCc4ccc(-c5scnc5C)cc4)C(C)(C)C)c2)n(C)c(=O)n3C)c1` [dTRIM24], which Kd (MIC2) is on record?
A: 0.42 nM

Q: And the koff (MIC2)?
A: NM/1.64E−04 1/s

Q: What about the kon (MIC2) of the same compound?
A: NM/3.92E+05 1/Ms

Q: Which Kd (MIC2) does the source give for `CC(=O)N1c2ccc(-c3ccc(C(=O)NCCOCCOCCOCC(=O)N[C@H](C(=O)N4C[C@H](O)C[C@H]4C(=O)NCc4ccc(-c5scnc5C)cc4)C(C)(C)C)cc3)cc2[C@H](Nc2ccc(Cl)cc2)C[C@@H]1C` [MZP54] here?
A: 0.42 nM

Q: And the koff (MIC2)?
A: NM/8.40E−05 1/s

Q: And the kon (MIC2)?
A: NM/2.00E+05 1/Ms

Q: With `CC(=O)N1c2ccc(-c3ccc(C(=O)NCCOCCOCCOCCOCC(=O)N[C@H](C(=O)N4C[C@H](O)C[C@H]4C(=O)NCc4ccc(-c5scnc5C)cc4)C(C)(C)C)cc3)cc2[C@H](Nc2ccc(Cl)cc2)C[C@@H]1C` [MZP55] as the compound, how does the Kd (MIC2) read?
A: 0.63 nM

Q: What about the koff (MIC2) of the same compound?
A: NM/7.40E−05 1/s

Q: What about the kon (MIC2) of the same compound?
A: NM/1.20E+05 1/Ms

Q: For `CC(=O)N[C@H](C(=O)N1C[C@H](O)C[C@H]1C(=O)NCc1ccc(-c2scnc2C)cc1)C(C)(C)SCCCCCCNC(=O)C[C@@H]1N=C(c2ccc(Cl)cc2)c2c(sc(C)c2C)-n2c(C)nnc21` [AT1], which Kd (MIC2) is on record?
A: 6 nM

Q: And the koff (MIC2)?
A: NM/1.90E−03 1/s

Q: What about the kon (MIC2) of the same compound?
A: NM/3.10E+05 1/Ms

Q: And the Kd (CD33xMIC10)?
A: 2.4e-09 M

Q: And the Kd (CD33xMIC11)?
A: 1.9e-10 M

Q: What about the Kd (CD33xMIC12) of the same compound?
A: 1.7e-09 M

Q: And the Kd (CD33xMIC13)?
A: 1.7e-09 M

Q: What about the Kd (CD33xMIC14) of the same compound?
A: 2.9e-09 M

Q: And the Kd (CD33xMIC5)?
A: 2.4e-09 M

Q: What about the Kd (CD33xMIC6) of the same compound?
A: 7.3e-09 M

Q: And the Kd (CD33xMIC7)?
A: 2.1e-09 M

Q: And the Kd (CD33xMIC8)?
A: 5.2e-09 M

Q: And the Kd (CD33xMIC9)?
A: 1.4e-09 M

Q: With `COc1cc(-c2cn(C)c(=O)c3cnccc23)cc(OC)c1CN1CCN(CCCCCOc2cc(-c3scnc3C)ccc2CNC(=O)[C@@H]2C[C@@H](O)CN2C(=O)[C@@H](NC(=O)C2(F)CC2)C(C)(C)C)CC1` [VZ185] as the compound, how does the Kd (MIC2) read?
A: > 1000 nM

Q: Which Kd (MIC2) does the source give for `Cc1nc(Nc2ncc(C(=O)Nc3c(C)cccc3Cl)s2)cc(N2CCN(C(=O)CCCCCCC(=O)N[C@H](C(=O)N3C[C@H](O)C[C@H]3C(=O)NCc3ccc(-c4scnc4C)cc3)C(C)(C)C)CC2)n1` [SIAIS178] here?
A: 0.41 nM

Q: What about the koff (MIC2) of the same compound?
A: NM/4.25E−05 1/s

Q: What about the kon (MIC2) of the same compound?
A: NM/1.05E+05 1/Ms

Q: What about the Kd (CD33xMIC7) of the same compound?
A: 8.3e-09 M
